# Source: PubChem BioAssay (NCI)
#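 1) Cells in 96-well plates. 2) Compound, 48 h, 5 concentrations. 3) Linear interpolation between surrounding doses. 4) Unreached endpoint = highest concentration. Definition used: TGI = concentration required for complete inhibition of growth.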
# Tests used:
# Test in all cases: inhibition of tumour cell growth, NCI panel, 48 h
# A549 NSCLC = tested on: A549 NSCLC
# UO-31 renal = tested on: UO-31 renal
# TK-10 renal = tested on: TK-10 renal
# SW-620 colon = tested on: SW-620 colon
# NCI-H23 lung = tested on: NCI-H23 lung
# NCI-H522 lung = tested on: NCI-H522 lung
# SF-268 CNS = tested on: SF-268 CNS
# EKVX NSCLC = tested on: EKVX NSCLC
# HS 578T breast = tested on: HS 578T breast
# T-47D breast = tested on: T-47D breast
structure (smiles),measurement,setting,value
Cc1nc2cc(Nc3ccccc3C(=O)O)ccc2s1,TGI,A549 NSCLC,> 100 µM
same,TGI,UO-31 renal,> 100 µM
same,TGI,TK-10 renal,> 100 µM
same,TGI,SW-620 colon,> 100 µM
same,TGI,NCI-H23 lung,> 100 µM
same,TGI,NCI-H522 lung,> 100 µM
same,TGI,SF-268 CNS,> 100 µM
NC(=O)CC(N=Cc1nc(-c2ccccc2)oc1O)C(=O)O (stereo not given),TGI,A549 NSCLC,> 100 µM
same,TGI,UO-31 renal,> 100 µM
same,TGI,TK-10 renal,> 100 µM
same,TGI,SW-620 colon,> 100 µM
same,TGI,EKVX NSCLC,> 100 µM
same,TGI,NCI-H23 lung,> 100 µM
same,TGI,NCI-H522 lung,> 100 µM
same,TGI,SF-268 CNS,> 100 µM
O=C(O)/C=C/c1ccc2c(c1)CC1(Cc3ccccc3C1)C2,TGI,A549 NSCLC,> 100 µM
same,TGI,UO-31 renal,> 100 µM
same,TGI,TK-10 renal,> 100 µM
same,TGI,HS 578T breast,> 100 µM
same,TGI,T-47D breast,> 100 µM
same,TGI,EKVX NSCLC,> 100 µM
same,TGI,NCI-H23 lung,> 100 µM
same,TGI,NCI-H522 lung,> 100 µM
CC1(C)OC2OC(C(COS(=O)(=O)C(F)(F)F)N=[N+]=[N-])C(OC(=O)c3ccccc3)C2O1 (stereo not given),TGI,A549 NSCLC,> 100 µM
same,TGI,UO-31 renal,> 100 µM
same,TGI,TK-10 renal,> 100 µM
same,TGI,SW-620 colon,> 100 µM
same,TGI,HS 578T breast,> 100 µM
same,TGI,EKVX NSCLC,> 100 µM
same,TGI,NCI-H23 lung,> 100 µM
same,TGI,SF-268 CNS,> 100 µM
CN(CCc1ccccn1)C(=S)N/N=C(\c1ccccc1)c1ccccn1,TGI,A549 NSCLC,8.42 µM
same,TGI,UO-31 renal,1.83 µM
same,TGI,TK-10 renal,3.27 µM
same,TGI,SW-620 colon,20.2 µM
same,TGI,HS 578T breast,> 26.4 µM
same,TGI,T-47D breast,4.82 µM
same,TGI,EKVX NSCLC,2 µM
same,TGI,NCI-H23 lung,4.26 µM
same,TGI,NCI-H522 lung,5.22 µM
O=C(O)/C=C/c1c[nH]c(=O)[nH]c1=O,TGI,A549 NSCLC,> 500 µM
same,TGI,UO-31 renal,> 500 µM
same,TGI,SW-620 colon,> 500 µM
same,TGI,EKVX NSCLC,> 500 µM
same,TGI,NCI-H23 lung,> 500 µM
same,TGI,NCI-H522 lung,> 500 µM
same,TGI,SF-268 CNS,> 500 µM
[N-]=[N+]=CC(=O)OCCCCl,TGI,UO-31 renal,> 100 µM
same,TGI,TK-10 renal,> 100 µM
same,TGI,SW-620 colon,> 100 µM
same,TGI,EKVX NSCLC,> 100 µM
same,TGI,NCI-H23 lung,> 100 µM
same,TGI,NCI-H522 lung,> 100 µM
same,TGI,SF-268 CNS,> 100 µM
CCn1c(CCl)nc2c1C(=O)c1ccccc1C2=O,TGI,A549 NSCLC,> 100 µM
same,TGI,TK-10 renal,8.73 µM
same,TGI,SW-620 colon,2.75 µM
same,TGI,HS 578T breast,6.24 µM
same,TGI,T-47D breast,4.21 µM
same,TGI,EKVX NSCLC,6.44 µM
same,TGI,NCI-H23 lung,3.12 µM
same,TGI,SF-268 CNS,6.65 µM
CC(=O)NC1=NC(=O)/C(=C/c2ccc(/C=C3/C(=O)N=C(NC(C)=O)N3C)cc2)N1C,TGI,A549 NSCLC,> 100 µM
same,TGI,UO-31 renal,> 100 µM
same,TGI,TK-10 renal,> 100 µM
same,TGI,SW-620 colon,> 100 µM
same,TGI,T-47D breast,> 100 µM
same,TGI,EKVX NSCLC,> 100 µM
same,TGI,NCI-H23 lung,> 100 µM
same,TGI,SF-268 CNS,> 100 µM
C[C@]12CC(c3ccccc3O1)C(C(=O)Nc1nc(C34CC5CC(CC(C5)C3)C4)cs1)C(=O)N2 (stereo not given in full),TGI,A549 NSCLC,> 100 µM
same,TGI,SW-620 colon,> 100 µM
same,TGI,HS 578T breast,> 100 µM
same,TGI,T-47D breast,> 100 µM
same,TGI,EKVX NSCLC,> 100 µM
same,TGI,NCI-H23 lung,> 100 µM
same,TGI,SF-268 CNS,> 100 µM
NC(=S)N1N=C2c3ccccc3CC[C@H]2[C@@H]1c1ccc(Cl)cc1,TGI,A549 NSCLC,> 100 µM
same,TGI,UO-31 renal,66.8 µM
same,TGI,TK-10 renal,> 100 µM
same,TGI,SW-620 colon,> 100 µM
same,TGI,EKVX NSCLC,> 100 µM
same,TGI,NCI-H23 lung,97.7 µM
same,TGI,NCI-H522 lung,35.4 µM
same,TGI,SF-268 CNS,> 100 µM
NC(Cc1ccc2nc3c4ccccc4c(=O)cc-3oc2c1)C(=O)O (stereo not given),TGI,A549 NSCLC,> 100 µM
same,TGI,UO-31 renal,> 100 µM
same,TGI,TK-10 renal,> 100 µM
same,TGI,SW-620 colon,> 100 µM
same,TGI,HS 578T breast,> 100 µM
same,TGI,T-47D breast,> 100 µM
same,TGI,EKVX NSCLC,> 100 µM
same,TGI,NCI-H23 lung,65.1 µM
same,TGI,SF-268 CNS,> 100 µM
CC(=O)c1ccc(NC(=O)C(=O)C(C#N)CC(C)(C)C=O)cc1 (stereo not given),TGI,A549 NSCLC,> 100 µM
same,TGI,UO-31 renal,> 100 µM
same,TGI,TK-10 renal,> 100 µM
same,TGI,SW-620 colon,> 100 µM
same,TGI,EKVX NSCLC,> 100 µM
same,TGI,NCI-H23 lung,> 100 µM
same,TGI,NCI-H522 lung,> 100 µM
same,TGI,SF-268 CNS,> 100 µM
C/C(=N\Nc1nc2ccccc2s1)c1cc2ccccc2cn1,TGI,A549 NSCLC,> 100 µM
same,TGI,UO-31 renal,14.8 µM
same,TGI,TK-10 renal,> 100 µM
same,TGI,SW-620 colon,> 100 µM
same,TGI,T-47D breast,23.2 µM
same,TGI,EKVX NSCLC,69.4 µM
same,TGI,NCI-H23 lung,18.1 µM
same,TGI,NCI-H522 lung,26 µM
same,TGI,SF-268 CNS,> 100 µM
O=c1[nH]cnc2c(COCCO)c[nH]c12,TGI,UO-31 renal,> 100 µM
same,TGI,TK-10 renal,> 100 µM
same,TGI,SW-620 colon,> 100 µM
same,TGI,EKVX NSCLC,> 100 µM
same,TGI,NCI-H23 lung,> 100 µM
same,TGI,NCI-H522 lung,> 100 µM
same,TGI,SF-268 CNS,> 100 µM
C(#CP(c1ccccc1)c1ccccc1)P(C#CP(c1ccccc1)c1ccccc1)c1ccccc1,TGI,A549 NSCLC,> 100 µM
same,TGI,UO-31 renal,> 100 µM
same,TGI,TK-10 renal,> 100 µM
same,TGI,SW-620 colon,> 100 µM
same,TGI,HS 578T breast,> 100 µM
same,TGI,T-47D breast,> 100 µM
same,TGI,EKVX NSCLC,> 100 µM
same,TGI,NCI-H522 lung,> 100 µM
same,TGI,SF-268 CNS,> 100 µM
NCCN1C(=O)c2ccccc2C1c1ccc(Cl)cc1 (stereo not given),TGI,A549 NSCLC,> 100 µM
same,TGI,UO-31 renal,> 100 µM
same,TGI,TK-10 renal,> 100 µM
same,TGI,SW-620 colon,> 100 µM
same,TGI,HS 578T breast,> 100 µM
same,TGI,T-47D breast,> 100 µM
same,TGI,EKVX NSCLC,> 100 µM
same,TGI,NCI-H23 lung,> 100 µM
same,TGI,SF-268 CNS,> 100 µM
O=C1CN(c2cccc(Cl)c2)C(=O)CN1NCNN1CC(=O)N(c2cccc(Cl)c2)CC1=O,TGI,A549 NSCLC,> 100 µM
same,TGI,UO-31 renal,> 100 µM
same,TGI,TK-10 renal,> 100 µM
same,TGI,SW-620 colon,> 100 µM
same,TGI,HS 578T breast,> 100 µM
same,TGI,EKVX NSCLC,> 100 µM
same,TGI,NCI-H23 lung,> 100 µM
same,TGI,NCI-H522 lung,> 100 µM
same,TGI,SF-268 CNS,> 100 µM
